Holding throughout (assay): in vitro susceptibility, MIC by mini broth dilution
What all share (assay type): cell-based
(In general: In broth dilution the organism is exposed to a series of concentrations in liquid medium.)

For experiment [1], the system named is Staphylococcus aureus CVCC26003. Particulars: strain CVCC26003. An outline of the steps:
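S. aureus CVCC26003 was revived and subcultured twice, 20 h each at 35° C, on solid medium, then diluted 1:200 in CAMHB liquid medium. Compounds received an 11-step two-fold DMSO dilution in parallel duplicate rows. MIC was read by mini broth dilution per NCCLS guidance.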

For experiment [2], the system named is Actinobacillus pleuropneumoniae CVCC262. Particulars: strain CVCC262. The gist of the method: (§1)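 Read-out is the minimum inhibitory concentration, measured by mini broth dilution following the US NCCLS approved standard, with 11 two-fold compound dilutions in DMSO and a 1:200-diluted inoculum.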
Another experiment concerns Haemophilus parasuis. An outline of the steps:
as §1

The subject of experiment [3] is Pasteurella multocida CVCC399. Particulars: strain CVCC399. An outline of the steps: as §1
In experiment [4] the test system is Streptococcus equines CVCC556. Particulars: strain CVCC556. An outline of the steps:
as §1

As for `CCCN1C[C@H](C)[C@@H](O)[C@](C)(O)[C@@H](CC)OC(=O)[C@H](C)[C@@H](O[C@H]2C[C@@](C)(OC)[C@](O)(CN(CC)CC)[C@H](C)O2)[C@H](C)[C@@H](O[C@@H]2O[C@H](C)C[C@H](N(C)C)[C@H]2O)[C@](C)(O)C[C@H]1C` [syzx-103], the “MIC values, Staphylococcus aureus CVCC26003” value in experiment [1] amounted to 0.25 ug/mi. In addition, the “MIC values, Actinobacillus pleuropneumoniae CVCC262” value in experiment [2] was 0,25 ug/mi. Moreover, the “MIC values, Haemophilus parasuis” value against Haemophilus parasuis is on record as 0.25 ug/mi. For the same compound, in experiment [3], the “MIC values, Pasteurella multocida CVCC399” value worked out at 1 ug/mi. The “MIC values, Streptococcus equines CVCC556” value in experiment [4] is recorded as 0.25 ug/mi.

As to `CCCN1C[C@H](C)[C@@H](O)[C@](C)(O)[C@@H](CC)OC(=O)[C@H](C)[C@@H](O[C@H]2C[C@@](C)(OC)[C@](O)(CNc3ccccc3)[C@H](C)O2)[C@H](C)[C@@H](O[C@@H]2O[C@H](C)C[C@H](N(C)C)[C@H]2O)[C@](C)(O)C[C@H]1C` [syzx-104], the “MIC values, Staphylococcus aureus CVCC26003” value in experiment [1] was 0.25 ug/mi. Moreover, in experiment [2], the “MIC values, Actinobacillus pleuropneumoniae CVCC262” value is recorded as 0.25 ug/mi. In addition, in the experiment on Haemophilus parasuis, the “MIC values, Haemophilus parasuis” value came to 0.25 ug/mi. Moreover, the “MIC values, Pasteurella multocida CVCC399” value in experiment [3] is 1 ug/mi. For the same compound, in experiment [4], the “MIC values, Streptococcus equines CVCC556” value came to 0.25 ug/mi.

Regarding `CCCN1C[C@H](C)[C@@H](O)[C@](C)(O)[C@@H](CC)OC(=O)[C@H](C)[C@@H](O[C@H]2C[C@@](C)(OC)[C@](O)(CNCC3(C)CC(N)CC(C)(C)C3)[C@H](C)O2)[C@H](C)[C@@H](O[C@@H]2O[C@H](C)C[C@H](N(C)C)[C@H]2O)[C@](C)(O)C[C@H]1C` (stereo partly drawn) [syzx-106], in experiment [1], the “MIC values, Staphylococcus aureus CVCC26003” value worked out at 2 ug/mi. The “MIC values, Actinobacillus pleuropneumoniae CVCC262” value in experiment [2] was found to be 0.5 ug/mi. Also, the “MIC values, Haemophilus parasuis” value against Haemophilus parasuis came out at 0.5 ug/mi. The “MIC values, Pasteurella multocida CVCC399” value in experiment [3] was 2 ug/mi. Further, in experiment [4], the “MIC values, Streptococcus equines CVCC556” value is on record as 0.25 ug/mi.

Regarding `CCCN1C[C@H](C)[C@@H](O)[C@](C)(O)[C@@H](CC)OC(=O)[C@H](C)[C@@H](O[C@H]2C[C@@](C)(OC)[C@](O)(CNCc3ccc(F)cc3)[C@H](C)O2)[C@H](C)[C@@H](O[C@@H]2O[C@H](C)C[C@H](N(C)C)[C@H]2O)[C@](C)(O)C[C@H]1C` [syzx-108], in experiment [1], the “MIC values, Staphylococcus aureus CVCC26003” value is reported as 0.25 ug/mi. Also, in experiment [2], the “MIC values, Actinobacillus pleuropneumoniae CVCC262” value was found to be 0.25 ug/mi. The “MIC values, Haemophilus parasuis” value with Haemophilus parasuis came out at 0.25 ug/mi. Also, the “MIC values, Pasteurella multocida CVCC399” value in experiment [3] was 1 ug/mi. For the same compound, in experiment [4], the “MIC values, Streptococcus equines CVCC556” value came to 0.25 ug/mi.

Consider `CCCN1CC(C)C(O)C(C)(O)C(CC)OC(=O)C(C)C(OC2CC(C)(OC)C(O)(Cn3ccnn3)C(C)O2)C(C)C(OC2OC(C)CC(N(C)C)C2O)C(C)(O)CC1C` (stereo not drawn) [syzx-109], for which, in experiment [1], the “MIC values, Staphylococcus aureus CVCC26003” value is reported as 0.25 ug/mi. Moreover, the “MIC values, Actinobacillus pleuropneumoniae CVCC262” value in experiment [2] amounted to 0.25 ug/mi. Further, the “MIC values, Haemophilus parasuis” value in the experiment on Haemophilus parasuis turned out to be 0.25 ug/mi. The “MIC values, Pasteurella multocida CVCC399” value in experiment [3] was found to be 1 ug/mi. Besides, the “MIC values, Streptococcus equines CVCC556” value in experiment [4] is 0.25 ug/mi.

Regarding `CCCN1C[C@H](C)[C@@H](O)[C@](C)(O)[C@@H](CC)OC(=O)[C@H](C)[C@@H](O[C@H]2C[C@@](C)(OC)[C@](O)(CNCC)[C@H](C)O2)[C@H](C)[C@@H](O[C@@H]2O[C@H](C)C[C@H](N(C)C)[C@H]2O)[C@](C)(O)C[C@H]1C` [syzx-110], the “MIC values, Staphylococcus aureus CVCC26003” value in experiment [1] is recorded as 0.25 ug/mi. Also, the “MIC values, Actinobacillus pleuropneumoniae CVCC262” value in experiment [2] is reported as 0.25 ug/mi. Further, the “MIC values, Haemophilus parasuis” value with Haemophilus parasuis worked out at 0.25 ug/mi. In addition, the “MIC values, Pasteurella multocida CVCC399” value in experiment [3] is 0.5 ug/mi. In experiment [4], the “MIC values, Streptococcus equines CVCC556” value was 0.25 ug/mi.

Turning to `CCCN1C[C@H](C)[C@@H](O)[C@](C)(O)[C@@H](CC)OC(=O)[C@H](C)[C@@H](O[C@H]2C[C@@](C)(OC)[C@](O)(CNC(C)C)[C@H](C)O2)[C@H](C)[C@@H](O[C@@H]2O[C@H](C)C[C@H](N(C)C)[C@H]2O)[C@](C)(O)C[C@H]1C` [syzx-111], the “MIC values, Staphylococcus aureus CVCC26003” value in experiment [1] came out at 0.25 ug/mi. In addition, the “MIC values, Actinobacillus pleuropneumoniae CVCC262” value in experiment [2] was determined as 0.25 ug/mi. Moreover, the “MIC values, Haemophilus parasuis” value in the experiment with Haemophilus parasuis amounted to 0.25 ug/mi. For the same compound, in experiment [3], the “MIC values, Pasteurella multocida CVCC399” value is reported as 0.5 ug/mi. Also, in experiment [4], the “MIC values, Streptococcus equines CVCC556” value turned out to be 0.25 ug/mi.

Regarding `CCCN1C[C@H](C)[C@@H](O)[C@](C)(O)[C@@H](CC)OC(=O)[C@H](C)[C@@H](O[C@H]2C[C@@](C)(OC)[C@](O)(CNCC(C)C)[C@H](C)O2)[C@H](C)[C@@H](O[C@@H]2O[C@H](C)C[C@H](N(C)C)[C@H]2O)[C@](C)(O)C[C@H]1C` [syzx-112], the “MIC values, Staphylococcus aureus CVCC26003” value in experiment [1] was 0.25 ug/mi. Also, the “MIC values, Actinobacillus pleuropneumoniae CVCC262” value in experiment [2] was determined as 0.25 ug/mi. Also, in the experiment on Haemophilus parasuis, the “MIC values, Haemophilus parasuis” value was found to be 0.25 ug/mi. The “MIC values, Pasteurella multocida CVCC399” value in experiment [3] was found to be 0.5 ug/mi. In addition, in experiment [4], the “MIC values, Streptococcus equines CVCC556” value was found to be 0.25 ug/mi.

For the compound `CCCN1C[C@H](C)[C@@H](O)[C@](C)(O)[C@@H](CC)OC(=O)[C@H](C)[C@@H](O[C@H]2C[C@@](C)(OC)[C@](O)(CNc3cccc(Cl)c3)[C@H](C)O2)[C@H](C)[C@@H](O[C@@H]2O[C@H](C)C[C@H](N(C)C)[C@H]2O)[C@](C)(O)C[C@H]1C` [syzx-113], the “MIC values, Staphylococcus aureus CVCC26003” value in experiment [1] worked out at 0.25 ug/mi. Also, the “MIC values, Actinobacillus pleuropneumoniae CVCC262” value in experiment [2] is recorded as 0.25 ug/mi. The “MIC values, Haemophilus parasuis” value in the experiment with Haemophilus parasuis is listed as 0.25 ug/mi. In experiment [3], the “MIC values, Pasteurella multocida CVCC399” value stood at 1 ug/mi. In addition, the “MIC values, Streptococcus equines CVCC556” value in experiment [4] worked out at 0.25 ug/mi.

For `CCCCCCNC[C@]1(O)[C@H](C)O[C@@H](O[C@H]2[C@H](C)[C@@H](O[C@@H]3O[C@H](C)C[C@H](N(C)C)[C@H]3O)[C@](C)(O)C[C@@H](C)N(CCC)C[C@H](C)[C@@H](O)[C@](C)(O)[C@@H](CC)OC(=O)[C@@H]2C)C[C@@]1(C)OC` [syzx-115], in experiment [1], the “MIC values, Staphylococcus aureus CVCC26003” value was 0.25 ug/mi. Further, in experiment [2], the “MIC values, Actinobacillus pleuropneumoniae CVCC262” value is 0.25 ug/mi. The “MIC values, Haemophilus parasuis” value in the experiment with Haemophilus parasuis is given as 0.25 ug/mi. For the same compound, the “MIC values, Pasteurella multocida CVCC399” value in experiment [3] worked out at 0.5 ug/mi. Further, in experiment [4], the “MIC values, Streptococcus equines CVCC556” value is recorded as 0.25 ug/mi.

`CCCN1C[C@H](C)[C@@H](O)[C@](C)(O)[C@@H](CC)OC(=O)[C@H](C)[C@@H](O[C@H]2C[C@@](C)(OC)[C@](O)(CNCc3ccc(C(F)(F)F)cc3)[C@H](C)O2)[C@H](C)[C@@H](O[C@@H]2O[C@H](C)C[C@H](N(C)C)[C@H]2O)[C@](C)(O)C[C@H]1C` [syzx-116]: the “MIC values, Staphylococcus aureus CVCC26003” value in experiment [1] is 0.25 ug/mi. Further, the “MIC values, Actinobacillus pleuropneumoniae CVCC262” value in experiment [2] was 0.25 ug/mi. The “MIC values, Haemophilus parasuis” value against Haemophilus parasuis is listed as 0.25 ug/mi. The “MIC values, Pasteurella multocida CVCC399” value in experiment [3] is listed as 1 ug/mi. The “MIC values, Streptococcus equines CVCC556” value in experiment [4] worked out at 0.25 ug/mi.

`CCCN1C[C@H](C)[C@@H](O)[C@](C)(O)[C@@H](CC)OC(=O)[C@H](C)[C@@H](O[C@H]2C[C@@](C)(OC)[C@](O)(CNCC3CC3)[C@H](C)O2)[C@H](C)[C@@H](O[C@@H]2O[C@H](C)C[C@H](N(C)C)[C@H]2O)[C@](C)(O)C[C@H]1C` [syzx-117]: the “MIC values, Staphylococcus aureus CVCC26003” value in experiment [1] is reported as 0.25 ug/mi. In addition, the “MIC values, Actinobacillus pleuropneumoniae CVCC262” value in experiment [2] was found to be 0.25 ug/mi. Further, the “MIC values, Haemophilus parasuis” value with Haemophilus parasuis worked out at 0.25 ug/mi. The “MIC values, Pasteurella multocida CVCC399” value in experiment [3] came out at 0.5 ug/mi. Further, the “MIC values, Streptococcus equines CVCC556” value in experiment [4] came to 0.25 ug/mi.

The values are drawn from patent US9765105B2, “Macrolide compound” (Pulike Biological Engineering, Inc., priority 2013, dated 2017).
